The values below come from patent EP0539170A1, “Benzodiazepine derivatives and their use as antagonists of cholecystokinin and/or gastrin receptors” (priority 1991, dated 1993).

The IC50 is the concentration needed to halve the response being measured. Low readings indicate greater potency in that assay, high ones weaker potency in that assay.

The experiment addresses T1, CCK Receptor (Pancreas) (Rattus norvegicus, UniProt P30551).
T1 construct: The whole pancreas was dissected free of fat tissue and was homogenized; from tissue; host or cells: rat pancreas membrane homogenate
T1 sequence (P30551 1-444): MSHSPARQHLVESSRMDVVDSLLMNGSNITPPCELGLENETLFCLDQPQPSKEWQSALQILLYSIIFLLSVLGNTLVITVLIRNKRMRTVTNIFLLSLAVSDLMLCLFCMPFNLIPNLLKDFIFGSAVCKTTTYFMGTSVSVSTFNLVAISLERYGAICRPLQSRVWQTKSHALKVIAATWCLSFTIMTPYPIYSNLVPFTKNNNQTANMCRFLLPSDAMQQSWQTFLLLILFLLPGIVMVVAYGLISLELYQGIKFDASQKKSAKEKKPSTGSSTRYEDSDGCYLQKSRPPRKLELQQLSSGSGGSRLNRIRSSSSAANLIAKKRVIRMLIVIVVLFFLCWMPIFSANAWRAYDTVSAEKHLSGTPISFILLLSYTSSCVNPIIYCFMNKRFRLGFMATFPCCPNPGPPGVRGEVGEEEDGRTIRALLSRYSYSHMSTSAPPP
Description: CCK Receptor Binding (Pancreas), inhibition of specific 125I-CCK-8 binding. The settings on record: rat whole pancreas membranes; 50 pM 125I-CCK-8; 25°C for 2 hours. Further details: species or system Sprague-Dawley rats. As to the method:
CCK-8 sulphated was radiolabelled with ¹²⁵I-Bolton Hunter reagent (2000 Ci/mmole). Receptor binding was performed according to Chang and Lotti (Proc. Natl. Acad. Sci. 83, 4923-4926, 1986) with minor modifications.
Male Sprague-Dawley rats (150-200g) were sacrificed by decapitation. The whole pancreas was dissected free of fat tissue and was homogenized in 25 volumes of ice-cold 10 mM N-2-hydroxyethyl-piperazine-N′-2-ethane sulphonic acid (HEPES) buffer with 0.1% soya bean trypsin inhibitor (pH 7.4 at 25°C) with a Kinematica Polytron. The homogenates were centrifuged at 47,800 g for 10 min. Pellets were resuspended in 10 volumes of binding assay buffer (20mM (HEPES)), 1mM ethylene glycol-bis-(β-aminoethylether-N,N′-tetraacetic acid) (EGTA), 5mM MgCl₂, 150 mM NaCl, bacitracin 0.25 mg/ml, soya bean trypsin inhibitor 0.1 mg/ml, and bovine serum albumin 2 mg/ml pH 6.5 at 25°C) using a Teflon (trademark) homogenizer, 15 strokes at 500 rpm. The homogenate was further diluted in binding assay buffer to give a final concentration of 0.5 mg original wet weight/1 ml buffer. […] All assays were run in duplicate. The reaction mixtures were incubated at 25°C for 2 hours and the reaction terminated by rapid filtration (Brandell 24 well cell harvester) over Whatman GF/C filters, washing 3 x 4 mls with ice-cold 100 Mm NaCl. The radioactivity on the filters was counted with a LKB gamma counter.
Drug displacement studies were performed with at least 10 concentrations of compounds of Formula I and the IC₅₀ values were determined by regression analysis IC₅₀ refers to the concentration of the compound required to inhibit 50% of specific binding of ¹²⁵I-CCK-8.
Regarding `Cc1cccc(NC(=O)NC2N=C(N3CCCC3)c3ccccc3N(C)C2=O)c1` (racemic) [Example 2, N-[3(R,S)-2.3-Dihydro-1-methyl-2-oxo-5-(pyrrolidin-1-yl)-1H-1,4-benzodiazepin-3-yl] N′-[3-methylphenyl] urea], the half-maximal inhibitory concentration (IC50) is 612 nM.

In the case of `Cc1cccc(NC(=O)NC2N=C(N3CCOCC3)c3ccccc3N(C)C2=O)c1` (racemic) [Example 3, N-[3(R,S)-2,3-Dihydro-1-methyl-5-(morpholin-4-yl)-2-oxo-1H-1,4-benzodiazepin-3-yl] N′-[3-methylphenyl] urea], the IC50 was found to be 505 nM.

On to `Cc1cccc(NC(=O)NC2N=C(N3CCN(C)CC3)c3ccccc3N(C)C2=O)c1` (racemic) [Example 4, N-[3(R,S)-2,3-Dihydro-1-methyl-5-(4-methylpiperazin-1-yl-2-oxo-1H-1,4-benzodiazepin-3-yl] N′-[3-methylphenyl]urea], for which the IC50 came out at 4120 nM.

The compound `CCc1cccc(NC(=O)NC2N=C(N3CCN(C)CC3)c3ccccc3N(C)C2=O)c1` (racemic) [Example 5, N-[3(R,S)-2,3-Dihydro-1-methyl-5-(4-methylpiperazin-1-yl)-2-oxo-1H-1,4-benzodiazepin-3-yl] N′-[3-ethylphenyl] urea] returned an IC50 of 4320 nM.

Take `Cc1ccc(NC(=O)NC2N=C(N3CCN(C)CC3)c3ccccc3N(C)C2=O)cc1` (racemic) [Example 6, N-[3(R,S)-2,3-Dihydro-1-methyl-5-(4-methylpiperazin-1-yl-2-oxo-1H-1,4-benzodiazepin-3-yl] N′-[4-methylphenyl]urea]: the 50% inhibitory concentration (IC50) was greater than 3000 nM.

With `CN1CCN(C2=NC(NC(=O)Nc3ccc(Cl)cc3)C(=O)N(C)c3ccccc32)CC1` (racemic) [Example 7, N-[3(R,S)-2,3-Dihydro-1-methyl-5-(4-methylpiperazin-1-yl-2-oxo-1H-1,4-benzodiazepin-3-yl] N′-[4-chlorophenyl]urea], the half-inhibitory concentration (IC50) was greater than 3000 nM.

With `Cc1cccc(NC(=O)NC2N=C(N3CCNCC3)c3ccccc3N(C)C2=O)c1` (racemic) [Example 9, N-[3(R,S)-2,3-Dihydro-1-methyl-2-oxo-5-(piperazin-1-yl)-1H-1,4-benzodiazepin-3-yl]-N′-[3-methylphenyl] urea], the IC50 is greater than 3000 nM.

Take `COc1cccc(NC(=O)NC2N=C(N3CCN(C)CC3)c3ccccc3N(C)C2=O)c1` (racemic) [Example 10, N-[3(R,S)-2,3-Dihydro-1-methyl-5-(4-methylpiperazin-1-yl)-2-oxo-1H-1,4-benzodiazepin-3-yl]-N#MIN#-[3-methoxyphenyl] urea]: the 50% inhibitory concentration (IC50) came to 900 nM.

On to `CN1CCN(C2=NC(NC(=O)Nc3cccc(O)c3)C(=O)N(C)c3ccccc32)CC1` (racemic) [Example 11, N-[3(R,S)-2,3-Dihydro-1-methyl-5-(4-methylpiperazin-1-yl)-2-oxo-1H-1,4-benzodiazepin-3-yl]-N#MIN#-[3-hydroxyphenyl] urea], for which the IC50 came out at 2300 nM.

As to `CCCN1C(=O)C(NC(=O)Nc2cccc(OC)c2)N=C(N2CCN(C)CC2)c2ccccc21` (racemic) [Example 12, N-[3(R,S)-2,3-Dihydro-5-(4-methylpiperazin-1-yl)-2-oxo-1-propyl-1H-1,4-benzodiazepin-3-yl]-N#MIN#-[3-methoxyphenyl] urea], the concentration for half-maximal inhibition (IC50) is greater than 3000 nM.

With `CN1CCN(C2=NC(NC(=O)Nc3cccc(-c4nnn(C)n4)c3)C(=O)N(C)c3ccccc32)CC1` (racemic) [Example 13, N-[3(R,S)-2,3-Dihydro-1-methyl-2-oxo-5-(4-methylpiperazin-1-yl)-1H-1,4-benzodiazepin-3-yl]-N′-[3-(2-methyltetrazol-5-yl)phenyl] urea], the half-maximal inhibitory concentration (IC50) was greater than 3000 nM.

Consider `CN1CCN(C2=NC(NC(=O)Nc3cccc(-c4nnnn4C)c3)C(=O)N(C)c3ccccc32)CC1` (racemic) [Example 14, N-[3(R,S)-2,3-Dihydro-1-methyl-2-oxo-5-(4-methylpiperazin-1-yl)-1H-1,4-benzodiazepin-3-yl)-N′-[3-(1-methyltetrazol-5-yl)phenyl] urea], for which the IC50 was greater than 3000 nM.

Compound `CN1CCN(C2=NC(NC(=O)Nc3cccc(C(=O)N(C)C)c3)C(=O)N(C)c3ccccc32)CC1` (racemic) [Example 15, N-[3(R,S)-2,3-Dihydro-1-methyl-2-oxo-5-(4-methylpiperazin-1-yl)-1H-1,4-benzodiazepin-3-yl]-N′-[3-(N,N-dimethylcarboxamido)phenyl] urea] registered an IC50 greater than 3000 nM.

Take `Cc1cccc(NC(=O)NC2N=C(N3CCCNCC3)c3ccccc3N(C)C2=O)c1` (racemic) [Example 16, N-[3(R,S)-2,3-Dihydro-5-(homopiperazin-1-yl)-1-methyl-2-oxo-1H-1,4-benzodiazepin-3-yl]-N′-[3-methylphenyl] urea]: the IC50 is greater than 3000 nM.

Regarding `Cc1cccc(NC(=O)NC2N=C(N3CCCN(C)CC3)c3ccccc3N(C)C2=O)c1` (racemic) [Example 17, N-[3(R,S)-2,3-Dihydro-1-methyl-5-(4-methylhomopiperazin-1-yl)-2-oxo-1H-1,4-benzodiazepin-3-yl]-N′-[3-methylphenyl] urea], the IC50 amounted to 2800 nM.

`CCNC(=O)c1cccc(NC(=O)NC2N=C(N3CCN(C)CC3)c3ccccc3N(C)C2=O)c1` (racemic) [Example 18, N-[3(R,S)-2,3-Dihydro-1-methyl-2-oxo-5-(4-methylpiperazin-1-yl)-1H-1,4-benzodiazepin-3-yl]-N′-[3-(N-ethylcarboxamido)phenyl] urea] yielded an IC50 greater than 3000 nM.

For the compound `CCc1cccc(NC(=O)NC2N=C(N3CCCCC3)c3ccccc3N(C)C2=O)c1` (racemic) [Example 19, N-[3(R,S)-2,3-Dihydro-1-methyl-2-oxo-5-(piperidin-1-yl)-1H-1,4-benzodiazepin-3-yl]-N′-[3-ethylphenyl] urea], the IC50 is 25 nM.

As for `Cc1cccc(NC(=O)NC2N=C(N3CCCCCC3)c3ccccc3N(C)C2=O)c1` (racemic) [Example 20, N-[3(R,S)-2,3-Dihydro-5-(homopiperidin-1-yl)-1-methyl-2-oxo-1H-1,4-benzodiazepin-3-yl]-N′-[3-methylphenyl] urea], the IC50 is 10 nM.

In turn, `CCCN1C(=O)C(NC(=O)Nc2cccc(CC)c2)N=C(N2CCN(C)CC2)c2ccccc21` (racemic) [Example 21, N-[3(R,S)-2,3-Dihydro-5-(4-methylpiperazin-1-yl)-2-oxo-1-propyl-1H-1,4-benzodiazepin-3-yl]-N#MIN#-[3-ethylphenyl] urea] showed a half-inhibitory concentration (IC50) of 2400 nM.

The compound `Cc1cccc(NC(=O)NC2N=C(N3CCN(C)CC3)c3ccccc3N(CC(C)C)C2=O)c1` (racemic) [Example 22, N-[3(R,S)-2,3-Dihydro-5-(4-methylpiperazin-1-yl)-1-(2-methylpropyl)-2-oxo-1H-1,4-benzodiazepin-3-yl]-N′-[3-methylphenyl] urea] yielded an IC50 of 1800 nM.

In turn, `CCc1cccc(NC(=O)NC2N=C(N3CCN(C)CC3)c3ccccc3N(CC(C)C)C2=O)c1` (racemic) [Example 23, N-[3(R,S)-2,3-Dihydro-5-(4-methylpiperazin-1-yl)-1-(2-methylpropyl)-2-oxo-1H-1,4-benzodiazepin-3-yl]-N′-[3-ethylphenyl] urea] came in with an IC50 of 2400 nM.

In turn, `CN1CCN(C2=NC(NC(=O)Nc3cccc(C(F)(F)F)c3)C(=O)N(C)c3ccccc32)CC1` (racemic) [Example 30, N-[3(R,S)-2,3-Dihydro-1-methyl-2-oxo-5-(4-methylpiperazin-1-yl)-1H-1,4-benzodiazepin-3-yl]-N′-[3-trifluoromethylphenyl] urea] displayed an IC50 of 2700 nM.
